Laboratory results reported in patent US8409560B2, “Solid dispersion formulations and methods of use thereof” (Zalicus Pharmaceuticals Ltd., priority 2011, dated 2013).
Like-named read-outs stand apart in the source and are kept apart here.

How the values were obtained:
[1] = Caco-2 apparent intestinal permeability; format: in vitro ADME; conditions: for recovery at 60 min, 1 μM: read-out: Percent Recovery
Source text: (§1) Absorption of particular drugs may be limited by biological factors, such as reduced cellular permeability in the intestine. Many cellular mechanisms can influence permeability, such as reduced passive paracellular and transcellular transport or increased active export by the efflux transporter protein P-glycoprotein. Thus, the use of self-emulsifying carriers may not be beneficial for drugs having limited cellular permeability, where methods to increase the solubilization of a drug may not increase its permeability in the gastrointestinal tract. Experiments were conducted to assess the apparent intestinal permeability of compound 1 using a Caco-2 cell model.
(§2) Briefly, Caco-2 cells were used as an in vitro model for predicting absorption through the intestinal epithelium. Confluent monolayers of Caco-2 cells were grown on collagen-coated, microporous, polycarbonate membranes (12-well Costar Transwell® plates) that are placed between two chambers. The apical side of the monolayer was exposed to the buffer solution in a first chamber, but the basolateral side of the monolayer adhered to microporous membranes fluidically connected to a second chamber. The dosing solution was added to the first chamber for measurements in the apical-to-basolateral direction (A-to-B) and to the second chamber for measurements in the basolateral-to-apical direction (B-to-A). […] The permeability assay buffer was Hanks Balanced Salt Solution containing 10 mM HEPES and 15 mM glucose at a pH of 7.4. The buffer in the receiver chamber also contained 1% bovine serum albumin. The dosing solution concentration was 1 μM of compound 1 in the assay buffer. All donor chambers were first pre-incubated for five minutes with dosing solution to attempt to saturate any non-specific binding sites on the device with test compound. After five minutes, the solution was removed and replaced with fresh dosing solution, and time was recorded as 0. Cell monolayers were dosed on the apical side/first chamber (for A-to-B measurements) or basolateral side/second chamber (for B-to-A measurements) and incubated at 37° C. with 5% CO2 in a humidified incubator. At 30 and 60 minutes, aliquots were taken from the receiver chambers and replaced with fresh assay buffer. Samples were taken from the donor chamber at 0 and 60 minutes. Each experiment was performed in triplicate.
(§3) The apparent permeability (Papp), percent recovery, and efflux ratio were calculated as follows:
(§4) [formula] [formula] where
(§5) [formula] is the slope of the cumulative concentration in the receiver chamber as a function of time; Vr [cm^3] is the volume of the receiver chamber; Vd [cm^3] is the volume of the donor chamber; A [cm^2] is the area of the cell monolayer, which is estimated to be about 1.13 cm^2 for the 12-well Costar Transwell® plates; C0 [μM] is the measured concentration in the donor chamber at t=0 hours; CN [μM] is the nominal concentration of the dosing solution; Cr final [μM] is the cumulative concentration in the receiver chamber at the end of the incubation period; and Cd final [μM] is the cumulative concentration in the donor chamber at the end of the incubation period.
(§6) Thus, absorption of compound 1 in humans is not expected to be permeability limited.

Caco-2 cells = assay: Caco-2 apparent intestinal permeability; format: in vitro ADME; conditions: for Papp, replicates R1-R3: 1 μM
Source text: as §1, §2, §3, §4, §5, §6

[2] = Dissolution of solid dispersions, gastric-to-FaSSIF media transition at 13 minutes; format: physicochemical; conditions: unformulated; pH 1.0-to-6.5
Description: FIGS. 1A-1H are graphs showing the dissolution rate in gastric media for solid dispersion formulations having 20% (w/w) loading of compound 1 and a gastric-to-FaSSIF (pH 1.0-to-6.5) media transition at 13 minutes. […]
Various formulations were tested to reduce precipitation. As shown in FIGS. 1A-1H, solubility was measured for the following formulations: carboxymethylethyl cellulose (CMEC, FIG. 1A), cellulose acetate phthalate (CAP, FIG. 1B), hydroxypropylmethyl cellulose acetate succinate M grade (HPMCAS-M, FIG. 1C), polyvinyl acetate phthalate (PVAP, FIG. 1D), methacrylic acid-methyl methacrylate copolymer (Eudragit® L 100, FIG. 1E), polyethylene glycol-polyvinylcaprolactam-polyvinylacetate copolymer (Soluplus®, FIG. 1F), hydroxypropylmethyl cellulose phthalate (HPMCP-H55, FIG. 1G), and polyvinylpyrrolidone vinylacetate copolymer (PVP-VA, FIG. 1H). […]
Further tests were conducted with different % loading of compound 1. Dissolution rates were measured for formulations have 35% (w/w) loading (FIGS. 2A-2C) and 50% (w/w) loading (FIGS. 3A-3D). CAP, HPMCAS-M, Eudragit® L 100, and PVAP were further analyzed for these tests. […]

**Q.** What does the source list for `O=C(CC(c1ccccc1)c1ccccc1)N1CCN(C(c2ccccc2)c2ccccc2)CC1` [Compound 1, 1-(4-benzhydrylpiperazin-1-yl)-3,3-diphenylpropan-1-one]?
**A.** recovery at 60 min, 1 μM ([1]; Caco-2, pH 7.4, Cell-free): 54%; Papp A→B at 60 min, 1 μM ([1]; human, Caco-2, pH 7.4, A-to-B, read-out: Papp Avg.): 5.15 ×10⁻⁶ cm/s; Papp A→B at 60 min, 1 μM ([1]; human, Caco-2, pH 7.4, A-to-B, read-out: Papp, replicates R1-R3): 4.37 ×10⁻⁶ cm/s; recovery at 60 min, 1 μM ([1]; human, Caco-2, pH 7.4, A-to-B): 28%; Papp B→A at 60 min, 1 μM ([1]; human, Caco-2, pH 7.4, B-to-A, read-out: Papp Avg.): 4.32 ×10⁻⁶ cm/s; Papp B→A at 60 min, 1 μM ([1]; human, Caco-2, pH 7.4, B-to-A, read-out: Papp, replicates R1-R3): 5.04 ×10⁻⁶ cm/s; recovery at 60 min, 1 μM ([1]; human, Caco-2, pH 7.4, B-to-A): 37%; efflux ratio at 60 min, 1 μM ([1]; human, Caco-2, pH 7.4, read-out: Efflux Ratio (Papp(B-to-A)/Papp(A-to-B))): 0.8; Papp, replicates R1-R3 (Caco-2 cells; A-to-B): 4.31 10^−6 cm/s; Papp, replicates R1-R3 (Caco-2 cells; B-to-A): 3.48 10^−6 cm/s; permeability classification (Caco-2 cells; Papp(A-to-B) more than 1.0×10^−6 cm/s): high permeability coefficient; efflux significance (Caco-2 cells; efflux ratio of less than 3): not considered significant; behaviour in FaSSIF media following exposure to gastric media [2]: rapidly precipitated
